# Tests used:
# [1] = tested on: TRPV3+/+ and TRPV3-/- mice; assay: Hot plate (55°C) paw withdrawal latency, Hargreaves test; assay type: in vivo, mouse
# Description: All tests were conducted during the light phase of the light/dark cycle by a trained observer blind to the genotype. Mice were habituated to the testing room for 60 min prior to the behavioral tests unless otherwise stated. Hargreaves test was performed as described previously ([Wang et al., 2018]). All behavioral experiments were conducted in a double-blind manner. For measurement of thermal hyperalgesia, animals were placed individually, 30 min after injection, on a hot plate (Bioseb, Chaville, France) with the temperature adjusted to 55°C. The withdrawal latency of each hind paw was determined until nocifensive reaction appeared (licking foot). Right hind paws of mice were injected intraplantarly with 10 μl normal saline (0.9% NaCl). Left hind paws of mice were injected intraplantarly with 10 μl normal saline (supplemented with 10 or 50 μM dyclonine).
# TRPV3 I637A = target: T1, TRPV3 I637A (Mus musculus, UniProt Q8K424, I637A); assay: Whole-cell recording of TRPV3 mutant I637A in HEK 293T cells; assay type: cell-based; details: 2-APB (1 mM)-evoked, –60 mV, read-out: IC50 for inhibition of TRPV3 mutant
# T1 construct: expressed in transfected cells; host or cells: HEK 293T
# Text: (§1) The WT mouse TRPV3 (mTRPV3), human TRPV3 (hTRPV3), rat TRPV1, rat TRPV2, rat TRPM8, and mouse TRPA1 cDNAs were generously provided by Dr. Feng Qin (State University of New York at Buffalo, Buffalo, USA). The GFP-mTRPV3 WT and the mutants (mTRPV3-G573S and mTRPV3-G573C) in pcDNA4/TO vector were gifts from Dr. Michael X Zhu (The University of Texas Health Science Center at Houston, Houston, USA). The WT fTRPV3 was kindly provided by Dr. Makoto Tominaga (Department of Physiological Sciences, SOKENDAI, Okazaki, Japan). All mutations were made using the overlap-extension polymerase chain reaction method as previously described ([Tian et al., 2019]). The resulting mutations were then verified by DNA sequencing. […]
# (§2) Conventional whole-cell and excised patch-clamp recording methods were used. […] For a subset of recordings, currents were amplified using an Axopatch 200B amplifier (Molecular Devices, Sunnyvale, CA) and recorded through a BNC-2090/MIO acquisition system (National Instruments, Austin, TX) using QStudio developed by Dr. Feng Qin at State University of New York at Buffalo. […] As determined by the conductance tests, the solution around a patch under study was fully controlled by the application of a flow rate of 100 μl/min or greater. […]
# TRPV3 L655A = target: T2, TRPV3 L655A (Mus musculus, UniProt Q8K424, L655A); assay: Whole-cell recording of TRPV3 mutant L655A in HEK 293T cells; assay type: cell-based; details: 2-APB (1 mM)-evoked, –60 mV, read-out: IC50 for inhibition of TRPV3 mutant
# T2 construct: expressed in transfected cells; host or cells: HEK 293T
# Text: as §1, §2
# T1 sequence (Q8K424 whole entry I637A): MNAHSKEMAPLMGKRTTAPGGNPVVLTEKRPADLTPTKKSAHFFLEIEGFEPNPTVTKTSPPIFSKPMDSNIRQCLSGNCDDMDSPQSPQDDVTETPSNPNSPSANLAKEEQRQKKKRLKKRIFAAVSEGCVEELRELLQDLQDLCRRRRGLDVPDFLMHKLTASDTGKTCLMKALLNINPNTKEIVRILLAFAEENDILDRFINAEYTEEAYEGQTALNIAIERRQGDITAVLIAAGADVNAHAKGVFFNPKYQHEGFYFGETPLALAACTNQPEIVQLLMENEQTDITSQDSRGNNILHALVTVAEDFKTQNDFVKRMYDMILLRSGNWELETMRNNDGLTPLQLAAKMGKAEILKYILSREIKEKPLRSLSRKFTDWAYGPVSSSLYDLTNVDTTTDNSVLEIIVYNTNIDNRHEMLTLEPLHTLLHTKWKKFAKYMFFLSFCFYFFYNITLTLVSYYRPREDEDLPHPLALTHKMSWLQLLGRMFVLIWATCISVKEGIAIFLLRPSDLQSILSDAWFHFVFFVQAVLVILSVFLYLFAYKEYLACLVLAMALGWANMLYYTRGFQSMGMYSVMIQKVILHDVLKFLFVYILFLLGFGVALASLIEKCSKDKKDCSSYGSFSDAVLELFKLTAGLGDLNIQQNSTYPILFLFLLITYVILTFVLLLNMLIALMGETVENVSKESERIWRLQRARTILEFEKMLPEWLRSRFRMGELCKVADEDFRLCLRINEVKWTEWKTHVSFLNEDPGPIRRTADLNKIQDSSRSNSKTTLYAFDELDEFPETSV
# T2 sequence (Q8K424 whole entry L655A): as the sequence (Q8K424 whole entry I637A) above, with A637I, L655A counted along it
structure (smiles),measurement,setting,value
CCCCOc1ccc(C(=O)CCN2CCCCC2)cc1 [dyclonine],paw withdrawal latencies (PWL),"[1]; TRPV3+/+ mice, intraplantar 10 μM dyclonine",18.08 ± 0.03 s
same,paw withdrawal latencies (PWL),"[1]; TRPV3+/+ mice, intraplantar 50 μM dyclonine",18.82 ± 0.42 s
same,paw withdrawal latencies (PWL),"[1]; TRPV3-/- mice, intraplantar 10 μM dyclonine",18.23 ± 0.52 s
same,paw withdrawal latencies (PWL),"[1]; TRPV3-/- mice, intraplantar 50 μM dyclonine",18.61 ± 0.46 s
same,IC50,TRPV3 I637A,6.1 ± 0.43 µM
same,IC50,TRPV3 L655A,287 ± 10.4 µM
